Experiments:
MCF-7 = assay: In vitro cytotoxic activity, MTT colorimetric assay, MCF-7; format: cell-based; conditions: Homo sapiens, MCF7, read-out: IC50 MCF-7
A549 = assay: In vitro cytotoxic activity, MTT colorimetric assay, A549; format: cell-based; conditions: Homo sapiens, A549, read-out: IC50 A549
HepG2 = assay: In vitro cytotoxic activity, MTT colorimetric assay, HepG2; format: cell-based; conditions: Homo sapiens, HepG2, read-out: IC50 HepG2
HCT116 = assay: In vitro cytotoxic activity, MTT colorimetric assay, HCT116; format: cell-based; conditions: Homo sapiens, HCT-116, read-out: IC50 HCT116
EGFR^T790M = EGFR^T790M (Homo sapiens, UniProt P00533, T790M); assay: EGFR^T790M kinase inhibitory assay; format: biochemical
VEGFR-2 = VEGFR-2 (Homo sapiens, UniProt P35968); assay: biochemical
VEGFR-2, sequence (P35968 20-1356): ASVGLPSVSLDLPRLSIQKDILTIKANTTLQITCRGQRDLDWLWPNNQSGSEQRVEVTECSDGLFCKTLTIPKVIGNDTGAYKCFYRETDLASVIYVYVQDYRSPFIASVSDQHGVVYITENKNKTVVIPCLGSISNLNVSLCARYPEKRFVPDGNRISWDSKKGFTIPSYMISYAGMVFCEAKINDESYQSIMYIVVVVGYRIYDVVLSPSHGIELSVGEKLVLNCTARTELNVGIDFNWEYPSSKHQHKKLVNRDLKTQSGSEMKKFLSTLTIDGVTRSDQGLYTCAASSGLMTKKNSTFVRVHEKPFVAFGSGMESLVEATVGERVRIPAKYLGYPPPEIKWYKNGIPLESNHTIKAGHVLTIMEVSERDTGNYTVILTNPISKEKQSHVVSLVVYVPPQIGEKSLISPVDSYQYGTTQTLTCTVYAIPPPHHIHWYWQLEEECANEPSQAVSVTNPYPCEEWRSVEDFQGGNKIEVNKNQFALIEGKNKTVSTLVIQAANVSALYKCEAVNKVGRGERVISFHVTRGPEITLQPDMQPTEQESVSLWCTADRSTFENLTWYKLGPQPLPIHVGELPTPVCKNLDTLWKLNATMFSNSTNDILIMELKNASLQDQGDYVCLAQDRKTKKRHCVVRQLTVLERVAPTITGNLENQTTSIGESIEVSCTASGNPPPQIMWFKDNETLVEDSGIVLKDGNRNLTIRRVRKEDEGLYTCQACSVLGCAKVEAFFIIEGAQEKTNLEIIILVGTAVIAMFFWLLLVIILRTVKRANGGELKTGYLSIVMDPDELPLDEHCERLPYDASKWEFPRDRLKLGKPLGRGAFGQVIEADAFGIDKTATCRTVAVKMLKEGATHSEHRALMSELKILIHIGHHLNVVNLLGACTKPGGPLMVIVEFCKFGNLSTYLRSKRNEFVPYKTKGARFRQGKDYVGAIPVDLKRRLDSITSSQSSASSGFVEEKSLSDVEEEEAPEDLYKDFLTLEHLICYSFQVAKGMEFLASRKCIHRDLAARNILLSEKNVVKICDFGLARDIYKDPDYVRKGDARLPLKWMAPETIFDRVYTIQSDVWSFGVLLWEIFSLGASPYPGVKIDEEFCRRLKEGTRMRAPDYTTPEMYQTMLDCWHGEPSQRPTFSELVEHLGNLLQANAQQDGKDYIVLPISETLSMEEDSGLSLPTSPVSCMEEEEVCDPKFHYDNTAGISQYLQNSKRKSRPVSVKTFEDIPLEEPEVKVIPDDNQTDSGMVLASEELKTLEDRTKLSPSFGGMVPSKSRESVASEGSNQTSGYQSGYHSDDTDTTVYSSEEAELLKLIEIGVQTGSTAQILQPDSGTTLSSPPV

EGFR^T790M, sequence (P00533 25-1210 T790M): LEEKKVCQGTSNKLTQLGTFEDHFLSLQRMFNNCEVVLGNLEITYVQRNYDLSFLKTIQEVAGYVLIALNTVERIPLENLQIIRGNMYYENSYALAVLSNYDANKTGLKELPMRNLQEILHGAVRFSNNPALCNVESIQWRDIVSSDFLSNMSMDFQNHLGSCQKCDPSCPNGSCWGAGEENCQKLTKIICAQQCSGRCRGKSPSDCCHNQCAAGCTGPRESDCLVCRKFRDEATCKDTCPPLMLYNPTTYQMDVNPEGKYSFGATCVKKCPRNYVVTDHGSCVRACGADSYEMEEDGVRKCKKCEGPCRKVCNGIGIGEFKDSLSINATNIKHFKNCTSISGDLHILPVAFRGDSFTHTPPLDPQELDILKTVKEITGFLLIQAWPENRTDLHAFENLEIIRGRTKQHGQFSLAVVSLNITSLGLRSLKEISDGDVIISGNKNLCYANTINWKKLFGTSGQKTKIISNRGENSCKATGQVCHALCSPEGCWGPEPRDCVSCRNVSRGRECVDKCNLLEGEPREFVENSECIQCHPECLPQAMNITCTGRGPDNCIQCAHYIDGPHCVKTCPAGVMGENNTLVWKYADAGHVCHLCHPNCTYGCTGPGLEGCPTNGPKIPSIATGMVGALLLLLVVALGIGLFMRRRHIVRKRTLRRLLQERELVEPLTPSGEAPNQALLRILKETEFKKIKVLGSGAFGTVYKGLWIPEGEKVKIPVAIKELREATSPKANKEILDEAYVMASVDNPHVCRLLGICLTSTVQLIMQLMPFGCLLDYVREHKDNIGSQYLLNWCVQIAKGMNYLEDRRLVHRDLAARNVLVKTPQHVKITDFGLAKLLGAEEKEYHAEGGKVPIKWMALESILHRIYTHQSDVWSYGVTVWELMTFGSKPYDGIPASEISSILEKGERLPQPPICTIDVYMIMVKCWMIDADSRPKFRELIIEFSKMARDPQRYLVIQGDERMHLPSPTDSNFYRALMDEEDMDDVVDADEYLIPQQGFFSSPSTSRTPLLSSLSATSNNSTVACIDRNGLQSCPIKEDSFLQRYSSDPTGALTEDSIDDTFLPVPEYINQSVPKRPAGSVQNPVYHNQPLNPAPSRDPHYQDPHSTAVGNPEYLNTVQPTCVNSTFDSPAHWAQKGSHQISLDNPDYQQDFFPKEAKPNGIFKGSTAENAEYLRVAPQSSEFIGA

SMILES | IC50 (MCF-7) [µM] | IC50 (A549) [µM] | IC50 (HepG2) [µM] | IC50 (HCT116) [µM] | IC50 (EGFR^T790M) [µM] | IC50 (VEGFR-2) [µM]
O=C(CN1C(=O)SC(=Cc2cccs2)C1=O)Nc1ccc(C(=O)O)cc1 [Compound 4g, 4-{2-[2,4-Dioxo-5-(thiophen-2-ylmethylene)thiazolidin-3-yl]acetamido}benzoic acid] | 10.7 ± 3.9 | 12.9 ± 3.9 | 6.22 ± 3.9 | 11.2 ± 3.9 | 0.23 | 
Cc1ccc(NC(=O)CN2C(=O)SC(=Cc3cccs3)C2=O)cc1 [Compound 4e, 2-[2,4-Dioxo-5-(thiophen-2-ylmethylene)thiazolidin-3-yl]-N-(p-tolyl)acetamide] | 25.2 ± 3.9 | 34 ± 3.9 | 24.5 ± 3.9 | 21.3 ± 3.9 |  | 
O=C(CN1C(=O)SC(=Cc2cccs2)C1=O)Nc1ccc(Br)cc1 [Compound 4d, N-(4-Bromophenyl)-2-[2,4-dioxo-5-(thiophen-2-ylmethylene)thiazolidin-3-yl]acetamide] | 22.7 ± 3.9 | 19 ± 3.9 | 13.5 ± 3.9 | 16.6 ± 3.9 | 0.42 | 0.255
O=C(CN1C(=O)SC(=Cc2ccco2)C1=O)Nc1ccc(Cl)cc1 [Compound 5b, N-(4-Chlorophenyl)-2-[5-(furan-2-ylmethylene)-2,4-dioxothiazolidin-3-yl]acetamide] | 25.7 ± 3.9 | 36.2 ± 3.9 | 23.8 ± 3.9 | 28.2 ± 3.9 |  | 
O=C(CN1C(=O)SC(=Cc2ccco2)C1=O)Nc1ccc(F)cc1 [Compound 5c, N-(4-Fluorophenyl)-2-[5-(furan-2-ylmethylene)-2,4-dioxothiazolidin-3-yl]acetamide] | 28.6 ± 1.3 | 35.4 ± 1.9 | 24.1 ± 2.5 | 35.7 ± 3.9 |  | 
O=C1NC(=O)C(=Cc2ccco2)S1 [Compound 3, 5-(furan-2-ylmethylene)thiazolidine-2,4-dione] |  |  |  | 58.2 |  | 
CC(C)c1ccc(NC(=O)CN2C(=O)SC(=Cc3ccco3)C2=O)cc1 [Compound 5e, 2-[5-(Furan-2-ylmethylene)-2,4-dioxothiazolidin-3-yl]-N-(4-isopropylphenyl)acetamide] | 14.5 ± 3.9 | 32.9 ± 3.9 | 23.8 ± 3.9 | 10.7 ± 3.9 | 0.41 | 0.263
CNC(=O)c1cc(Oc2ccc(NC(=O)Nc3ccc(Cl)c(C(F)(F)F)c3)cc2)ccn1 [Sorafenib, sorafenib, reference compound] |  |  | 4 ± 0.33 |  |  | 
Cc1ccc(NC(=O)CN2C(=O)SC(=Cc3ccco3)C2=O)cc1 [Compound 5d, 2-[5-(Furan-2-ylmethylene)-2,4-dioxothiazolidin-3-yl]-N-(p-tolyl)acetamide] | 25.3 ± 4.5 | 29.7 ± 4.1 | 23.6 ± 3.9 | 26.4 ± 1.4 |  | 0.276
O=C(CN1C(=O)SC(=Cc2cccs2)C1=O)Nc1ccc(F)cc1 [Compound 4c, 2-[2,4-Dioxo-5-(thiophen-2-ylmethylene)thiazolidin-3-yl]-N-(4-fluorophenyl)acetamide] | 39 ± 1.3 | 38.3 ± 1.9 | 34.2 ± 5.1 | 42.5 ± 3.9 |  | 
O=C(CN1C(=O)SC(=Cc2cccs2)C1=O)Nc1ccc(Cl)cc1 [Compound 4b, N-(4-Chlorophenyl)-2-[2,4-dioxo-5-(thiophen-2-ylmethylene)thiazolidin-3-yl]acetamide] | 36.9 ± 1.3 | 36.1 ± 1.9 | 35.4 ± 5.1 | 38.4 ± 3.9 |  | 
O=C(CN1C(=O)SC(=Cc2ccco2)C1=O)Nc1ccc(C(=O)O)cc1 [Compound 5g, 4-{2-[5-(Furan-2-ylmethylene)-2,4-dioxothiazolidin-3-yl]acetamido}benzoic acid] | 10.7 ± 3.9 | 7.55 ± 3.9 | 3.86 ± 3.9 | 9.04 ± 3.9 |  | 
COc1ccc(NC(=O)CN2C(=O)SC(=Cc3ccco3)C2=O)cc1 [Compound 5f, 2-[5-(Furan-2-ylmethylene)-2,4-dioxothiazolidin-3-yl]-N-(4-methoxyphenyl)acetamide] | 18.5 ± 3.9 | 13 ± 3.9 | 11 ± 3.9 | 15.7 ± 3.9 | 0.35 | 0.247
O=C(CN1C(=O)SC(=Cc2cccs2)C1=O)Nc1ccccc1 [Compound 4a, 2-[2,4-Dioxo-5-(thiophen-2-ylmethylene)thiazolidin-3-yl]-N-phenylacetamide] | 63.6 ± 3.8 | 51 ± 2.5 | 52.1 ± 5.2 | 58.2 ± 0.7 |  | 
O=C(CN1C(=O)SC(=Cc2ccco2)C1=O)Nc1ccccc1 [Compound 5a, 2-[5-(Furan-2-ylmethylene)-2,4-dioxothiazolidin-3-yl]-N-phenylacetamide] | 59.6 ± 3.8 | 53.2 ± 2.5 | 52.1 ± 5.2 | 48.3 ± 0.7 |  | 
COc1ccc(NC(=O)CN2C(=O)SC(=Cc3cccs3)C2=O)cc1 [Compound 4f, 2-[2,4-Dioxo-5-(thiophen-2-ylmethylene)thiazolidin-3-yl]-N-(4-methoxyphenyl)acetamide] | 22.3 ± 3.9 | 22.7 ± 3.9 | 10.2 ± 3.9 | 17.7 ± 3.9 | 0.36 | 
